Columns and labels:
[1] = test system: KYSE-70 esophageal cancer cell line; assay: Cell growth inhibition of KYSE-70 (Sulforhodamine B); format: cell-based; settings: Homo sapiens; KYSE-70, 72 hours; read-out: KYSE70 GI50
Procedure, shortened: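 KYSE-70 cells (YES1-amplified) in RPMI-1640 with 10% FBS were seeded 24 h before treatment with compound at 0.0046–10 µM final. After 72 h, cells were TCA-fixed and stained with sulforhodamine B, with absorbance read at 510 nm. GI50 was derived with a time-zero plate set to 0% and the vehicle control to 100%, in duplicate tests.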

[2] = target: YES1 kinase (Homo sapiens, UniProt P07947); assay: YES1 kinase inhibition, ADP Glo assay (Promega); format: biochemical; settings: for inhibition at 0.01 µM: compound 10 nM, read-out: YES1 enzyme, % inhibition, 10 nM; for inhibition at 0.1 µM: compound 100 nM, read-out: YES1 enzyme, % inhibition, 100 nM; for IC50: class symbols, read-out: YES1 enzyme, IC50
YES1 kinase, sequence (P07947 whole entry): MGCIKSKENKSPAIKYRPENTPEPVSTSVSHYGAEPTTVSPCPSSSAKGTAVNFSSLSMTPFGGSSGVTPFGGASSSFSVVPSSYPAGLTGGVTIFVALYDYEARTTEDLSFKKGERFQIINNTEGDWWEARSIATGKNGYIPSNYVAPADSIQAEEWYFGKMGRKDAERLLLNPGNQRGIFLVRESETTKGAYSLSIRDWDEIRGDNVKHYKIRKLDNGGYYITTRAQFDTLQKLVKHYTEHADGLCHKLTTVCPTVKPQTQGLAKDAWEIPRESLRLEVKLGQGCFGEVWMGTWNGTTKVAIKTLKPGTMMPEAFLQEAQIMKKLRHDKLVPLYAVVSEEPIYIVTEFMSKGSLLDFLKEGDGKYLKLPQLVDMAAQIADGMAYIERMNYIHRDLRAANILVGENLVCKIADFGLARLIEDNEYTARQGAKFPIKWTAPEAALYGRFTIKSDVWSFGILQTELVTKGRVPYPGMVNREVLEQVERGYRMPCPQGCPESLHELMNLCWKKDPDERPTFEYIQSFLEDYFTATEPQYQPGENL
Procedure, shortened: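 YES1 kinase was preincubated 10 min with compound in Mn2+/DTT-containing kinase buffer, then reacted 40 min at room temperature with ATP/substrate; ADP was detected by ADP-Glo luminescence. Activity, background-subtracted and normalised to negative control, is given as % inhibition at 1, 10 and 100 nM, plus IC50.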

## COc1cc(-c2cc(N3CCC4C(CCN4C)C3)n3ncnc(N)c23)ccc1NC(=O)OC(C)(C)C (centres unmarked) [Example 26, tert-butyl (4-(4-amino-7-(1-methyloctahydro-5H-pyrrolo[3,2-c]pyridin-5-yl)pyrrolo[2,1-f][1,2,4]triazin-5-yl)-2-methoxyphenyl)carbamate]
[1]
  GI50: 1000 to 10000 nM
[2]
  inhibition at 0.01 µM: 30%
  inhibition at 0.1 µM: 69%

## COc1cc(-c2cc(N3CCC4(CC3)CC(=O)N(C)C4)n3ncnc(N)c23)ccc1NC(=O)OC(C)(C)C [Example 27, tert-butyl (4-(4-amino-7-(2-methyl-3-oxo-2,8-diazaspiro[4.5]decan-8-yl)pyrrolo[2,1-f][1,2,4]triazin-5-yl)-2-methoxyphenyl)carbamate]
[1]
  GI50: 1000 to 10000 nM
[2]
  inhibition at 0.01 µM: 59%
  inhibition at 0.1 µM: 74%

## COc1cc(-c2cc(N3CCN(CCN(C)C)CC3)n3ncnc(N)c23)ccc1NC(=O)OC(C)(C)C [Example 28, tert-butyl (4-(4-amino-7-(4-(2-(dimethylamino)ethyl)piperazin-1-yl)pyrrolo[2,1-f][1,2,4]triazin-5-yl)-2-methoxyphenyl)carbamate]
[1]
  GI50: 1000 to 10000 nM
[2]
  inhibition at 0.01 µM: 41%
  inhibition at 0.1 µM: 85%

## COCCN1CCN(c2cc(-c3ccc(NC(=O)OC(C)(C)C)c(OC)c3)c3c(N)ncnn23)CC1 [Example 29, tert-butyl (4-(4-amino-7-(4-(2-methoxyethyl)piperazin-1-yl)pyrrolo[2,1-f][1,2,4]triazin-5-yl)-2-methoxyphenyl)carbamate]
[1]
  GI50: > 10000 nM
[2]
  inhibition at 0.01 µM: 28%
  inhibition at 0.1 µM: 47%

## COc1cc(-c2cc(N3CC[C@@H](N(C)C)[C@@H](F)C3)n3ncnc(N)c23)ccc1NC(=O)OC(C)(C)C [Example 30, tert-butyl (4-(4-amino-7-((3S,4R)-4-(dimethylamino)-3-fluoropiperidin-1-yl)pyrrolo[2,1-f][1,2,4]triazin-5-yl)-2-methoxyphenyl)carbamate]
[1]
  GI50: ≤ 100 nM
[2]
  inhibition at 0.01 µM: 73%
  inhibition at 0.1 µM: 94%

## COc1cc(-c2cc(N3CCC4(CCN(C)CC4)C3)n3ncnc(N)c23)ccc1NC(=O)OC(C)(C)C [Example 36, tert-butyl (4-(4-amino-7-(8-methyl-2,8-diazaspiro[4.5]decan-2-yl)pyrrolo[2,1-f][1,2,4]triazin-5-yl)-2-methoxyphenyl)carbamate]
[1]
  GI50: 100 to 1000 nM
[2]
  inhibition at 0.01 µM: 36%
  inhibition at 0.1 µM: 78%

## COc1cc(-c2cc(N3CCC4(CN(C)C4)C3)n3ncnc(N)c23)ccc1NC(=O)OC(C)(C)C [Example 37, tert-butyl (4-(4-amino-7-(2-methyl-2,6-diazaspiro[3.4]octan-6-yl)pyrrolo[2,1-f][1,2,4]triazin-5-yl)-2-methoxyphenyl)carbamate]
[1]
  GI50: 100 to 1000 nM
[2]
  inhibition at 0.01 µM: 24%
  inhibition at 0.1 µM: 69%

## COc1cc(-c2cc(N3CC4(CCN(C)CC4)C3)n3ncnc(N)c23)ccc1NC(=O)OC(C)(C)C [Example 38, tert-butyl (4-(4-amino-7-(7-methyl-2,7-diazaspiro[3.5]nonan-2-yl)pyrrolo[2,1-f][1,2,4]triazin-5-yl)-2-methoxyphenyl)carbamate]
[1]
  GI50: ≤ 100 nM
[2]
  inhibition at 0.01 µM: 44%
  inhibition at 0.1 µM: 80%

## COc1cc(-c2cc(N3CC4(CCN(C)C4)C3)n3ncnc(N)c23)ccc1NC(=O)OC(C)(C)C [Example 39, tert-butyl (4-(4-amino-7-(6-methyl-2,6-diazaspiro[3.4]octan-2-yl)pyrrolo[2,1-f][1,2,4]triazin-5-yl)-2-methoxyphenyl)carbamate]
[1]
  GI50: ≤ 100 nM
[2]
  inhibition at 0.01 µM: 57%
  inhibition at 0.1 µM: 89%

## COc1cc(-c2cc(N3CCC[C@@H](CN(C)C)C3)n3ncnc(N)c23)ccc1NC(=O)OC(C)(C)C [Example 40, tert-butyl (S)-(4-(4-amino-7-(3-((dimethylamino)methyl)piperidin-1-yl)pyrrolo[2,1-f][1,2,4]triazin-5-yl)-2-methoxyphenyl)carbamate]
[1]
  GI50: 1000 to 10000 nM
[2]
  inhibition at 0.01 µM: 5%
  inhibition at 0.1 µM: 43%

## COc1cc(-c2cc(N3C[C@@H]4[C@H](C3)[C@H]4N(C)C)n3ncnc(N)c23)ccc1NC(=O)OC(C)(C)C [Example 42, tert-butyl (4-(4-amino-7-((1R,5S,6s)-6-(dimethylamino)-3-azabicyclo[3.1.0]hexan-3-yl)pyrrolo[2,1-f][1,2,4]triazin-5-yl)-2-methoxyphenyl)carbamate]
[1]
  GI50: ≤ 100 nM
[2]
  inhibition at 0.01 µM: 63%
  inhibition at 0.1 µM: 90%

## CNC1CCN(c2cc(-c3ccc(NC(=O)OC(C)(C)C)c(OC)c3)c3c(N)ncnn23)CC1 [Example 44, tert-butyl (4-(4-amino-7-(4-(methylamino)piperidin-1-yl)pyrrolo[2,1-f][1,2,4]triazin-5-yl)-2-methoxyphenyl)carbamate]
[1]
  GI50: ≤ 100 nM
[2]
  IC50: ≤ 100 nM
  inhibition at 0.01 µM: 80%
  inhibition at 0.1 µM: 96%

## COc1cc(-c2cc(N3CCC(C)(N)CC3)n3ncnc(N)c23)ccc1NC(=O)OC(C)(C)C [Example 45, tert-butyl (4-(4-amino-7-(4-amino-4-methylpiperidin-1-yl)pyrrolo[2,1-f][1,2,4]triazin-5-yl)-2-methoxyphenyl)carbamate]
[1]
  GI50: ≤ 100 nM
[2]
  IC50: ≤ 100 nM
  inhibition at 0.01 µM: 80%
  inhibition at 0.1 µM: 92%

## COc1cc(-c2cc(N3CC[C@@H](N)[C@@H](F)C3)n3ncnc(N)c23)ccc1NC(=O)OC(C)(C)C [Example 46, tert-butyl (4-(4-amino-7-((3S,4R)-4-amino-3-fluoropiperidin-1-yl)pyrrolo[2,1-f][1,2,4]triazin-5-yl)-2-methoxyphenyl)carbamate]
[1]
  GI50: 100 to 1000 nM
[2]
  inhibition at 0.01 µM: 52%
  inhibition at 0.1 µM: 77%

## COc1cc(-c2cc(N3CCC(N)C(C)C3)n3ncnc(N)c23)ccc1NC(=O)OC(C)(C)C (centres unmarked) [Example 48, tert-butyl (4-(4-amino-7-(4-amino-3-methylpiperidin-1-yl)pyrrolo[2,1-f][1,2,4]triazin-5-yl)-2-methoxyphenyl)carbamate]
[1]
  GI50: ≤ 100 nM
[2]
  inhibition at 0.01 µM: 70%
  inhibition at 0.1 µM: 96%

## COc1cc(-c2cc(N3CC4CC3CC4N)n3ncnc(N)c23)ccc1NC(=O)OC(C)(C)C (centres unmarked) [Example 51, tert-butyl (4-(4-amino-7-(5-amino-2-azabicyclo[2.2.1]heptan-2-yl)pyrrolo[2,1-f][1,2,4]triazin-5-yl)-2-methoxyphenyl)carbamate]
[1]
  GI50: 100 to 1000 nM
[2]
  inhibition at 0.01 µM: 70%
  inhibition at 0.1 µM: 90%

## COc1cc(-c2cc(N3CCC4(CC3)CNC(=O)C4)n3ncnc(N)c23)ccc1NC(=O)OC(C)(C)C [Example 52, tert-butyl (4-(4-amino-7-(3-oxo-2,8-diazaspiro[4.5]decan-8-yl)pyrrolo[2,1-f][1,2,4]triazin-5-yl)-2-methoxyphenyl)carbamate]
[1]
  GI50: 100 to 1000 nM
[2]
  IC50: ≤ 100 nM
  inhibition at 0.01 µM: 60%
  inhibition at 0.1 µM: 90%

## COc1cc(-c2cc(N3CCC4(CCNC4=O)CC3)n3ncnc(N)c23)ccc1NC(=O)OC(C)(C)C [Example 53, tert-butyl (4-(4-amino-7-(1-oxo-2,8-diazaspiro[4.5]decan-8-yl)pyrrolo[2,1-f][1,2,4]triazin-5-yl)-2-methoxyphenyl)carbamate]
[1]
  GI50: ≤ 100 nM
[2]
  inhibition at 0.01 µM: 29%
  inhibition at 0.1 µM: 60%

## COc1cc(-c2cc(N3CCC4(CCC(=O)N4)CC3)n3ncnc(N)c23)ccc1NC(=O)OC(C)(C)C [Example 54, tert-butyl (4-(4-amino-7-(2-oxo-1,8-diazaspiro[4.5]decan-8-yl)pyrrolo[2,1-f][1,2,4]triazin-5-yl)-2-methoxyphenyl)carbamate]
[1]
  GI50: ≤ 100 nM
[2]
  IC50: ≤ 100 nM
  inhibition at 0.01 µM: 20%
  inhibition at 0.1 µM: 60%

## COc1cc(-c2cc(N3CCC4(CC3)CNC4=O)n3ncnc(N)c23)ccc1NC(=O)OC(C)(C)C [Example 55, tert-butyl (4-(4-amino-7-(1-oxo-2,7-diazaspiro[3.5]nonan-7-yl)pyrrolo[2,1-f][1,2,4]triazin-5-yl)-2-methoxyphenyl)carbamate]
[1]
  GI50: ≤ 100 nM
[2]
  inhibition at 0.01 µM: 40%
  inhibition at 0.1 µM: 76%

## COc1cc(-c2cc(N3CCC4(CC3)CC(=O)N4)n3ncnc(N)c23)ccc1NC(=O)OC(C)(C)C [Example 56, tert-butyl (4-(4-amino-7-(2-oxo-1,7-diazaspiro[3.5]nonan-7-yl)pyrrolo[2,1-f][1,2,4]triazin-5-yl)-2-methoxyphenyl)carbamate]
[1]
  GI50: ≤ 100 nM
[2]
  IC50: ≤ 100 nM
  inhibition at 0.01 µM: 23%
  inhibition at 0.1 µM: 68%

## COc1cc(-c2cc(N3CCC(CN)CC3)n3ncnc(N)c23)ccc1NC(=O)OC(C)(C)C [Example 59, tert-butyl (4-(4-amino-7-(4-(aminomethyl)piperidin-1-yl)pyrrolo[2,1-f][1,2,4]triazin-5-yl)-2-methoxyphenyl)carbamate]
[1]
  GI50: 100 to 1000 nM
[2]
  IC50: ≤ 100 nM
  inhibition at 0.01 µM: 56%
  inhibition at 0.1 µM: 80%

## COc1cc(-c2cc(N3CCC(N)CC3)n3ncnc(N)c23)ccc1NC(=O)OC(C)(C)CF [Example 65, 1-fluoro-2-methylpropan-2-yl (4-(4-amino-7-(4-aminopiperidin-1-yl)pyrrolo[2,1-f][1,2,4]triazin-5-yl)-2-methoxyphenyl)carbamate]
[1]
  GI50: 100 to 1000 nM
[2]
  IC50: ≤ 100 nM
